Test results: patent US11015061B2, “Phthalocyanine-based compound and uses of same” (YAMAMOTO CHEMICALS, INC., priority 2017, dated 2021)

What was measured:
Assay type in all cases: physicochemical
[1] = Absorption spectrum of toluene solution (maximum absorption, gram absorption coefficient); conditions: for gram absorption coefficient: at maximum absorption
Protocol: A toluene solution of the compound obtained in this way had maximum absorption at 734.0 nm, and the gram absorption coefficient thereof was 1.21×10^5 mL/g·cm. The absorption spectrum chart thereof is illustrated in FIG. 1.

[2] = Solubility in organic solvent (cyclopentanone); conditions: about 10 wt % dispersion, room temperature, 0.2 μm filter; no residue = 10 wt % or more
Protocol: The solubility of the phthalocyanine compound with respect to cyclopentanone was measured by the following method.
Cyclopentanone was added to about 1 g of the phthalocyanine compound such that the total weight thereof became about 10 g, and the obtained solution was irradiated with ultrasonic waves for about 30 minutes and then stirred for 2 hours at room temperature, thereby preparing a dispersion liquid of about 10 wt %.
The dispersion liquid was filtered through a membrane filter (0.2 μm), the substance obtained by filtration was dried for 1 hour in a drier at 60° C., and then the weight of the substance obtained by filtration was measured.
The solubility of the phthalocyanine compound in a solvent is expressed by the following equation. Solubility (wt %)=(W0−W1)/W0
W0 represents the correct weight of the phthalocyanine not yet being treated, and W1 represents the weight of the substance obtained by filtration (dissolved phthalocyanine compound residue) having been dried.

[3] = Visible light transmittance of chloroform solution; conditions: spectrum converted to transmittance 10% at near-infrared maximum absorption wavelength
Protocol: The visible light transmittance of the phthalocyanine-based compound of the present invention and the comparative example compounds was measured by the following measurement method.
Each of the phthalocyanine compounds ([…]) and approximately 90 mL of chloroform were put into a 100 mL volumetric flask, and the solution in the flask was irradiated with ultrasonic waves for 30 minutes and left to stand for 2 hours at room temperature. Then, chloroform was added thereto such that the meniscus of the solution matched up with the calibration mark on the volumetric flask, thereby preparing a 10 mg/L phthalocyanine solution. The prepared solution was put into a 1 cm×1 cm cell made of PYREX (registered trademark), and the absorption spectrum thereof was measured using a spectrophotometer (produced by Hitachi, Ltd.: Spectrophotometer U-3500).
The absorption spectrum measured as above was converted such that the absorbance became 1.0, that is, the transmittance became 10% at the maximum absorption wavelength in a near-infrared range, thereby obtaining a transmission spectrum. […] At 460 nm, the transmittance of the compound of the present invention was approximately the same as the transmittance of Comparative Examples 1 and 2.

[4] = Heat resistance test of heat ray shielding film; conditions: 200 hours at 100° C., absorbance integrated 400 to 900 nm
Protocol: In the evaluation test, the release film was peeled from the produced heat ray shielding film, then the heat ray shielding film was compressed on a 5 cm×5 cm×3 mm (thickness) glass plate, and a test piece created in this way was used.
(§1) For a heat resistance test, the test piece used for measuring the spectrum before test as described above was treated with heat for 200 hours at a temperature of 100° C. in a thermostat (produced by Yamato Scientific co., ltd.: IG400). By using the spectrophotometer, the absorption spectrum of the heat-treated test piece was measured and adopted as a spectrum after heat resistance test.
(§2) In each of the spectra measured as above before and after the light fastness⋅heat resistance test, the values of absorbance within a range of 400 to 900 nm were integrated, and a difference between the integrated value before the light fastness⋅heat resistance test and the integrated value after the light fastness⋅heat resistance test was calculated.
(§3) The difference ΔE between the absorbance before the light fastness⋅heat resistance test and the absorbance after the light fastness⋅heat resistance test is expressed by the following equation. ΔE (%)={E(400 to 900 nm in E1)−E(400 to 900 nm in E2)}/E(400 to 900 nm in E1)×100
E1 represents the spectrum before test, E2 represents the spectrum after test, and Σ represents integration of the values of absorbance.
The larger the value of ΔE, the greater the spectrum change between before and after the light fastness⋅heat resistance test.

[5] = Tts of laminated glass sample; conditions: 0.76 mm PVB interlayer with 0.013 g compound per 100 g resin, JIS R3106
Protocol: (§4) The phthalocyanine-based compound (Specific Example (1)-30) produced in Example 1 (0.013 g) was dissolved in 40 g of triethylene glycol-di-2-ethylhexanoate as an organic ester plasticizer. The obtained solution was added to 100 g of a polyvinyl butyral resin (trade name: BH-3, produced by SEKISUI CHEMICAL CO., LTD.), thoroughly melted and kneaded using a mixing roll, and extruded using an extruder, thereby obtaining an interlayer having a thickness of 0.76 mm.
(§5) The interlayer was cut in size of 100 mm×100 mm, interposed between heat ray absorbing glass plates (100 mm (length)×100 mm (width)×2.0 mm (thickness)) prepared based on JIS R3208, put into a rubber bag, and deaerated for 20 minutes at a degree of vacuum of 2.6 kPa. Then, the deaerated laminate was moved into an oven and further hold for 30 minutes at 90° C. to vacuum press. Thereafter, the laminate was compressed for 20 minutes in an autoclave under the condition of a temperature of 130° C. and a pressure of 1.3 MPa, thereby obtaining a laminated glass sample.
By using U-3500 type recording spectrophotometer produced by Hitachi, Ltd. as a measurement instrument, Tts of the laminated glass samples was measured based on JIS R3106 “Testing method for transmittance, reflectance, emissivity, and solar heat gain coefficient of flat glasses”.

[6] = Visible light transmittance of laminated glass sample; conditions: 380 to 780 nm, JIS R3212
Protocol: as §4, §5
By using U-3500 type recording spectrophotometer produced by Hitachi, Ltd. as a measurement instrument, the visible light transmittance of the laminated glass samples at a wavelength of 380 to 780 nm was measured based on JIS R3212 “Test methods of safety glazing materials for road vehicles”.

[7] = Light fastness test of laminated glass; conditions: xenon light 200 hours at 550 W/h, absorbance integrated 400 to 900 nm
Protocol: as §4, §5
For a light fastness test, the absorption spectrum of the laminated glass was measured using a spectrophotometer (produced by Hitachi, Ltd.: Spectrophotometer U-3500) and adopted as a spectrum before light fastness test. Then, the laminated glass used for measuring the spectrum before test was irradiated with light for 200 hours at 550 W/h by using a xenon light fastness tester (produced by Toyo Seiki Seisaku-sho, Ltd.: SUNTEST XLS+). The absorption spectrum of the laminated glass irradiated with light was measured using the spectrophotometer and adopted as a spectrum after light fastness test.
as §2, §3
(§6) E1 represents the spectrum before test, E2 represents the spectrum after test, and Σ represents integration of values of absorbance. The larger the value of ΔE, the greater the spectrum change between before and after the light fastness⋅heat resistance test.

[8] = Heat resistance test of laminated glass; conditions: 200 hours at 100° C., absorbance integrated 400 to 900 nm
Protocol: as §4, §5
as §1, with “laminated glass” for “test piece”
as §2, §3, §6

Q: Which results are given for CC(C)(C)c1ccc(OCCCCc2ccc(CCCCOc3ccc(C(C)(C)C)cc3)c3c2-c2nc-3nc3[n-]c(nc4nc(nc5[n-]c(n2)c2c(CCCCOc6ccc(C(C)(C)C)cc6)ccc(CCCCOc6ccc(C(C)(C)C)cc6)c52)-c2c(CCCCOc5ccc(C(C)(C)C)cc5)ccc(CCCCOc5ccc(C(C)(C)C)cc5)c2-4)c2c(CCCCOc4ccc(C(C)(C)C)cc4)ccc(CCCCOc4ccc(C(C)(C)C)cc4)c32)cc1.[O]=[V+2] [Specific Example (1)-42]?
A: maximum absorption [1]: 734.5 nm; gram absorption coefficient [1]: 71000 mL/g/cm; Solubility to cyclopentanone (wt %) [2]: ≥10% wt %; Transmittance (%) 460 nm [3]: 97.9%; Transmittance (%) 610 nm [3]: 88.5%; ΔE (%) Heat resistance [4]: 4%; Tts [5]: 52.3%; Visible light transmittance [6]: 77.7%; ΔE (%) Light fastness [7]: 2%; ΔE (%) Heat resistance [8]: 3%

Q: Which maximum absorption [1] does the source give for COc1cccc(OC)c1OCCCCc1ccc(CCCCOc2c(OC)cccc2OC)c2c1-c1nc-2nc2[n-]c(nc3nc(nc4[n-]c(n1)c1c(CCCCOc5c(OC)cccc5OC)ccc(CCCCOc5c(OC)cccc5OC)c41)-c1c(CCCCOc4c(OC)cccc4OC)ccc(CCCCOc4c(OC)cccc4OC)c1-3)c1c(CCCCOc3c(OC)cccc3OC)ccc(CCCCOc3c(OC)cccc3OC)c21.[O]=[V+2] [Specific Example (1)-44] here?
A: 734.5 nm

Q: And the gram absorption coefficient [1]?
A: 67500 mL/g/cm

Q: And the “Solubility to cyclopentanone (wt %)” value [2]?
A: ≥10% wt %

Q: And the “Transmittance (%) 460 nm” value [3]?
A: 98.3%

Q: What about the “Transmittance (%) 610 nm” value [3] of the same molecule?
A: 89.0%

Q: And the “ΔE (%) Heat resistance” value [4]?
A: 4%

Q: What about the Tts [5] of the same molecule?
A: 52.9%

Q: What about the Visible light transmittance [6] of the same molecule?
A: 77.9%

Q: What about the “ΔE (%) Light fastness” value [7] of the same molecule?
A: 3%

Q: What about the “ΔE (%) Heat resistance” value [8] of the same molecule?
A: 3%

Q: Which results are given for Fc1ccccc1OCCCCc1ccc(CCCCOc2ccccc2F)c2c1-c1nc-2nc2[n-]c(nc3nc(nc4[n-]c(n1)c1c(CCCCOc5ccccc5F)ccc(CCCCOc5ccccc5F)c41)-c1c(CCCCOc4ccccc4F)ccc(CCCCOc4ccccc4F)c1-3)c1c(CCCCOc3ccccc3F)ccc(CCCCOc3ccccc3F)c21.[O]=[V+2] [Specific Example (1)-43]?
A: maximum absorption [1]: 735.5 nm; gram absorption coefficient [1]: 78900 mL/g/cm; Solubility to cyclopentanone (wt %) [2]: ≥10% wt %; Transmittance (%) 460 nm [3]: 97.6%; Transmittance (%) 610 nm [3]: 88.0%; ΔE (%) Heat resistance [4]: 3%; Tts [5]: 52%; Visible light transmittance [6]: 77.6%; ΔE (%) Light fastness [7]: 3%; ΔE (%) Heat resistance [8]: 4%

Q: What does the source list for COCc1ccc(COC)c2c1-c1nc-2nc2[n-]c(nc3nc(nc4[n-]c(n1)c1c(COC)ccc(COC)c41)-c1c(COC)ccc(COC)c1-3)c1c(COC)ccc(COC)c21.[O]=[V+2] [Comparative Example Compound (a), reference compound]?
A: maximum absorption [1]: 733.0 nm; gram absorption coefficient [1]: 130000 mL/g/cm; Solubility to cyclopentanone (wt %) [2]: ≤1% wt %; Transmittance (%) 460 nm [3]: 97.9%; Transmittance (%) 610 nm [3]: 86.6%; ΔE (%) Heat resistance [4]: 31%; Tts [5]: 53.6%; Visible light transmittance [6]: 75%; ΔE (%) Light fastness [7]: 33%; ΔE (%) Heat resistance [8]: 35%

Q: With COCCCCc1ccc(CCCCOC)c2c1-c1nc-2nc2[n-]c(nc3nc(nc4[n-]c(n1)c1c(CCCCOC)ccc(CCCCOC)c41)-c1c(CCCCOC)ccc(CCCCOC)c1-3)c1c(CCCCOC)ccc(CCCCOC)c21.[Cu+2] [Specific Example (1)-31] as the molecule, how does the maximum absorption [1] read?
A: 705.5 nm

Q: And the gram absorption coefficient [1]?
A: 78900 mL/g/cm

Q: And the “Solubility to cyclopentanone (wt %)” value [2]?
A: ≥10% wt %

Q: And the “Transmittance (%) 460 nm” value [3]?
A: 99.2%

Q: What about the “Transmittance (%) 610 nm” value [3] of the same molecule?
A: 88.3%

Q: What about the “ΔE (%) Heat resistance” value [4] of the same molecule?
A: 3%

Q: And the Tts [5]?
A: 51.5%

Q: What about the Visible light transmittance [6] of the same molecule?
A: 77.7%

Q: What about the “ΔE (%) Light fastness” value [7] of the same molecule?
A: 3%

Q: And the “ΔE (%) Heat resistance” value [8]?
A: 2%
